Results published in article PMC11218446, “Antibacterial efficacy and membrane mechanism of action of the Serratia-derived non-ionic lipopeptide, serrawettin W2-FL10” (Microbiology Spectrum, 2024).

Legend:
[1] = system: tested Gram-negative bacterial strains; experiment: Broth microdilution assay (OD 600 nm); type: cell-based; conditions: results not shown
Excerpt: The S. marcescens NP2 strain was previously isolated from a wastewater treatment plant sample and the identity of the strain was confirmed via molecular typing ([47]). The S. marcescens NP2 strain was deposited in the South African Rhizobium Culture Collection (SARCC no. 3157). The test bacterial strains used in the broth microdilution assay included L. monocytogenes ATCC 13932, E. faecalis ATCC 7080, S. aureus ATCC 25923, S. aureus RN4220, MRSA Xen 30, E. faecalis S1, E. faecium S1, B. subtilis ATCC 6051, E. coli ATCC 417371, P. aeruginosa ATCC 27853, K. pneumoniae ATCC 13383, A. baumannii ATCC 19606, and S. typhimurium ATCC 14028. […]
All the cultures (inoculated into 5 mL MHB, or 5 mL TSB for Listeria and Enterococcus strains) were incubated at 37°C to reach an optical density (OD) of 0.4 at 600 nm (∼10^7 CFU/mL). […] Following incubation, the absorbance was measured using a microtiter plate reader at 600 nm. […]
The “top” and “bottom” are the maximum and minimum inhibition responses, respectively, for a particular set of dose-response data, while the activity slope is related to the Hill slope of a sigmoidal binding curve ([16]). […] In addition to the MIC and IC50 inhibition parameters, an inhibition concentration factor (ICF), was calculated as outlined in Rautenbach et al. ([17]). […]

three S. aureus strains [2] = experiment: Membrane depolarization assay, DiSC3(5), summary; type: cell-based, Staphylococcus aureus; conditions: abstract
Protocol: The membrane depolarization capability (ability to disrupt membrane potential) of the W2-FL10 against S. aureus ATCC 25923, S. aureus RN4220, or MRSA Xen 30 was determined using the voltage-sensitive fluorescent probe, DiSC3(5) ([20]). Briefly, black 96-well plates were prepared with W2-FL10 at 12.5 µg/mL and 25 µg/mL, while 4 and 8 µg/mL of melittin were used as a positive depolarization control, and the plates were air dried as described in the “Antibacterial activity: broth microdilution assay” section. The S. aureus strains were inoculated into MHB and grown to the mid-log phase (OD600 of 0.5–0.6). Cells were harvested by centrifugation at 3,000 rpm for 10 min and resuspended in HEPES buffer (5 mM, pH 7.4, containing 20 mM glucose; 100 mM KCl) to OD600 of 0.05. Thereafter, DiSC3(5) (stock concentration of 400 µM in 100% DMSO) was added to the cell suspension to a final concentration of 0.4 µM, and cells were incubated in the dark at room temperature for 40 min. Cell suspensions (100 µL) were then dispensed into the wells of the black 96-well plate. […] Fluorometric readings of the plate were conducted at 1 min intervals over 12 min (readings began 60 s after cells were added to the plates) using a Tecan Spark at 622 nm excitation wavelength and 670 nm emission wavelength. […]

three S. aureus strains [3] = experiment: Membrane permeability assay, propidium iodide, summary; type: cell-based, Staphylococcus aureus; conditions: discussion
Protocol: The membrane permeability capabilities of the W2-FL10 against the S. aureus strains were determined using PI ([56]). Briefly, black 96-well plates were prepared with W2-FL10 at 6.25, 12.5, and 25 µg/mL, while 4–16 µg/mL of melittin was used as a positive permeability control, and the plates were dried as described in the “Antibacterial activity: broth microdilution assay” section. The S. aureus strains were inoculated into MHB, grown to mid-log phase (OD600 of 0.5–0.6), and diluted to OD600 of 0.3. PI (stock concentration of 1 mg/mL in analytical quality H2O) was added to the cell suspension to a final concentration of 10 µg/mL and cells were incubated in the dark at room temperature for 20 min. Thereafter, 100 µL of OD-adjusted PI cells in the mid-log phase were dispensed into each well. Sterile broth and the OD-adjusted inoculum with PI were included as a non-fluorescent control, while sterile broth with PI was included as a sterility control, and melittin was included as membrane depolarization control. […] Fluorometric readings of the plate were conducted in 4-min intervals over 60 min (readings began ~60 s after cells were added to the plate) using a Tecan Spark at 535 nm excitation wavelength and 617 nm emission wavelength.
The leakage kinetics or PI permeabilization kinetic was assessed using a rate parameter of ΔPI fluorescence per minute. […]

For `CCCCCCCC1CC(=O)N[C@H](CC(C)C)C(=O)N[C@@H](CO)C(=O)N[C@@H]([C@@H](C)O)C(=O)N[C@H](Cc2ccccc2)C(=O)N[C@@H](CC(C)C)C(=O)O1` (stereo partly drawn) [W2-FL10, serrawettin W2-FL10], the MIC [1] was greater than 125 µg/mL, the “time within which membrane potential was dissipated” value (three S. aureus strains [2]) was no more than 12 min and the “time within which delayed leakage of PI occurred” value (three S. aureus strains [3]) was 30 to 45 min.
